Measurements: ChEMBL document CHEMBL1806418, “Azepanone-based inhibitors of human cathepsin S: optimization of selectivity via the P2 substituent” (Bioorg Med Chem Lett, 2011)

Assays:
[1] = molecular target: T1, Cathepsin S (Homo sapiens, UniProt P25774); test: Inhibition of human recombinant cathepsin S using Ac-KQLR-AMC as substrate by fluorescence assay
[2] = molecular target: T2, Cathepsin K (Homo sapiens, UniProt P43235); test: Inhibition of human recombinant cathepsin K using z-LR-AFC as substrate by fluorescence assay
T2 sequence (P43235 whole entry): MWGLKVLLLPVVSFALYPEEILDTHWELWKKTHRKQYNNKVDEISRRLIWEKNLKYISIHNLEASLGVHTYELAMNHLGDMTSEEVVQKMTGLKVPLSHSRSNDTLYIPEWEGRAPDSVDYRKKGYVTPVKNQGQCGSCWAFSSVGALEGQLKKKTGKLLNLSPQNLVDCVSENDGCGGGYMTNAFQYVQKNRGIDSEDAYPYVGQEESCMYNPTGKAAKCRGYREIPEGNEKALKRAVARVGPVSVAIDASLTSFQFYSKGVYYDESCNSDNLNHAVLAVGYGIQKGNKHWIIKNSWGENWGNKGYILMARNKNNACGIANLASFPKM

[3] = molecular target: T3, Procathepsin L (Homo sapiens, UniProt P07711); test: Inhibition of human recombinant cathepsin L using Z-LR-AMC as substrate by fluorescence assay
[4] = molecular target: T1, Cathepsin S; test: Inhibition of cathepsin S in human Raji cells assessed as decrease in cell surface expression of MHC class 2/CLIP by flow cytometric analysis; format: cell-based
[5] = molecular target: T2, Cathepsin K; test: Inhibition of human cathepsin K using Z-Lys-Gln-Lys-Leu-Arg-AMC as substrate after 1 hr by fluorescence assay; conditions: read-out: Ki(app)
[6] = molecular target: T1, Cathepsin S; test: Inhibition of human cathepsin S using Z-Lys-Gln-Lys-Leu-Arg-AMC as substrate after 1 hr by fluorescence assay; conditions: read-out: Ki(app)
[7] = molecular target: T3, Procathepsin L; test: Inhibition of human cathepsin L using Z-Phe-Arg-AMC as substrate after 1 hr by fluorescence assay; conditions: read-out: Ki(app)

T3 sequence (P07711 whole entry): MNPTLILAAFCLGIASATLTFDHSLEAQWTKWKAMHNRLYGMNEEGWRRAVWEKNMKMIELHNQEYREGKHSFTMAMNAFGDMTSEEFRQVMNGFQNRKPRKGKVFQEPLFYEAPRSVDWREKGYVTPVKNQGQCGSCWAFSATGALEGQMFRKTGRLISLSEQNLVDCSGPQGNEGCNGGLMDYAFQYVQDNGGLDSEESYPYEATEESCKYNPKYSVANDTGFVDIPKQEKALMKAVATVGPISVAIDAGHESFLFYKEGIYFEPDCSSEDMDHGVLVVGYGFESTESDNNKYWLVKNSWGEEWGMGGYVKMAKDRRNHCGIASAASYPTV
T1 sequence (P25774 whole entry): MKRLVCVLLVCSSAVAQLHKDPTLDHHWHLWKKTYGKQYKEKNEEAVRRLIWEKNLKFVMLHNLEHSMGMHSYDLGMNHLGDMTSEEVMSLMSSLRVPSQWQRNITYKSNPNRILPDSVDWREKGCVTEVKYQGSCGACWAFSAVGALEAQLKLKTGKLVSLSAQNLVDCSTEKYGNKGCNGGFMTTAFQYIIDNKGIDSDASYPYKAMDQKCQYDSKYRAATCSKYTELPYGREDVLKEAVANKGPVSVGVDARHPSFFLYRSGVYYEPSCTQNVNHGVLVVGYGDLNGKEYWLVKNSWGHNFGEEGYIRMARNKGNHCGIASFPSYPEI

Compound | IC50 [1] [nM] | IC50 [2] [nM] | IC50 [3] [nM] | IC50 [4] [nM] | Ki [5] [nM] | Ki [6] [nM] | Ki [7] [nM]
C[C@@H]1CC[C@H](NC(=O)[C@H](CC2=CCCC2)NC(=O)c2ccco2)C(=O)CN1S(=O)(=O)c1ccccn1 | 4.9 | 9 | 3.8 |  |  |  | 
C[C@@H]1CC[C@H](NC(=O)[C@H](CC2CCCC2)NC(=O)c2ccco2)C(=O)CN1S(=O)(=O)c1ccccn1 | 0.76 | 27.7 | 4.8 |  |  |  | 
C[C@@H]1CC[C@H](NC(=O)[C@H](CC2CCCCC2)NC(=O)c2ccco2)C(=O)CN1S(=O)(=O)c1ccccn1 | 0.5 | 40.5 | 1.2 | 1780 |  |  | 
C[C@@H]1CC[C@H](NC(=O)[C@H](CC2CCCCCC2)NC(=O)c2ccco2)C(=O)CN1S(=O)(=O)c1ccccn1 | < 0.4 | 28.2 | < 0.4 |  |  |  | 
CC(C)C[C@H](NC(=O)c1ccco1)C(=O)N[C@H]1CC[C@@H](C)N(S(=O)(=O)c2ccccn2)CC1=O | 2.9 | 1 | 0.53 |  |  |  | 
C[C@@H]1CC[C@H](NC(=O)[C@H](CC(C)(C)C)NC(=O)c2ccco2)C(=O)CN1S(=O)(=O)c1ccccn1 | 1.3 | 4.7 | 11.5 | 4800 |  |  | 
C[C@@H]1CC[C@H](NC(=O)[C@H](CC2(C)CCCC2)NC(=O)c2ccco2)C(=O)CN1S(=O)(=O)c1ccccn1 | < 0.4 | 11.2 | 22.4 |  |  |  | 
C[C@@H]1CC[C@H](NC(=O)[C@H](CC2(C)CCCCC2)NC(=O)c2ccco2)C(=O)CN1S(=O)(=O)c1ccccn1 | < 0.4 | 44.5 | 31.9 | 1400 |  |  | 
C[C@@H]1CC[C@H](NC(=O)[C@@H](CC2(C)CCCC2)NC(=O)c2ccco2)C(=O)CN1S(=O)(=O)c1ccccn1 | 101 | 1900 | 4400 |  |  |  | 
C[C@@H]1CC[C@H](NC(=O)[C@@H](CC2(C)CCCCC2)NC(=O)c2ccco2)C(=O)CN1S(=O)(=O)c1ccccn1 | 37 | 2300 | 1700 |  |  |  | 
C[C@@H]1CC[C@H](NC(=O)[C@H](CCC2CCCC2)NC(=O)c2ccco2)C(=O)CN1S(=O)(=O)c1ccccn1 | 1.9 | 840 | 10.7 |  |  |  | 
CC1CCC(C[C@H](NC(=O)c2ccco2)C(=O)N[C@H]2CC[C@@H](C)N(S(=O)(=O)c3ccccn3)CC2=O)CC1 (stereo not given in full) | 0.5 | 450 | 1 |  |  |  | 
C[C@@H]1CC[C@H](NC(=O)[C@H](CC2CCC(C)(C)CC2)NC(=O)c2ccco2)C(=O)CN1S(=O)(=O)c1ccccn1 | 1.2 | 6200 | 58.5 |  |  |  | 
C[C@@H]1CC[C@H](NC(=O)[C@H](CCC2CCCC2)NC(=O)N2CCOCC2)C(=O)CN1S(=O)(=O)c1ccccn1 | 0.58 | 1100 | 10.8 |  |  |  | 
C[C@@H]1CC[C@H](NC(=O)[C@H](CC2(C)CCCCC2)NC(=O)N2CCOCC2)C(=O)CN1S(=O)(=O)c1ccccn1 | < 0.4 | 136 | 48.7 | 570 |  |  | 
C[C@@H]1CC[C@H](NC(=O)[C@H](CC23CCC(CC2)C3(C)C)NC(=O)N2CCOCC2)C(=O)CN1S(=O)(=O)c1ccccn1 | 1.5 | 174 | 139 |  |  |  | 
C[C@@H]1CC[C@H](NC(=O)[C@H](CC2(C)CCCCC2)NC(=O)c2ccco2)C(=O)CN1C(=O)c1ccccn1 | 1.5 | 263 | 429 | 3880 |  |  | 
CC(C)C[C@H](NC(=O)c1ccco1)C(=O)N[C@H]1CC[C@@H](C)N(C(=O)c2ccccn2)CC1=O | 31.6 | 10 | 10 |  |  |  | 
O=C(N[C@@H](Cc1ccc2ccccc2c1)C(=O)N[C@H]1CCCN(S(=O)(=O)c2ccccn2)CC1=O)c1cccc2ccccc12 |  |  |  |  | > 10000 |  | 
CC(C)C[C@H](NC(=O)c1cc2cc(OCCN3CCOCC3)ccc2o1)C(=O)N[C@H]1CCCN(C(=O)Cc2cccc(-c3ccccn3)c2)CC1=O | 8.3 |  |  | 940 | 0.1 | 8.3 | 1.2
